Conditions: Liquid; for viscosity: Capillary tube (Ostwald / Ubbelohde) method; for mass density: Vibrating tube method

CCCCCCCCCC [decane]
Conditions	mass density [kg/m3]	viscosity [mPa·s]
303.15 K, 2001 kPa	724.01	0.8079
303.15 K, 3991 kPa	725.58	0.8268
303.15 K, 6003 kPa	727.19	0.8461
303.15 K, 8001 kPa	728.75	0.8655
303.15 K, 9992 kPa	730.27	0.885
303.15 K, 13006 kPa	732.5	0.915
303.15 K, 16005 kPa	734.69	0.9445
303.15 K, 18998 kPa	736.88	0.9734
303.15 K, 21997 kPa	739	1.004
303.15 K, 25008 kPa	741.03	1.035
303.15 K, 27989 kPa	743.02	1.066
303.15 K, 29988 kPa	744.3	1.086
323.15 K, 1995 kPa	708.76	0.6249
323.15 K, 4003 kPa	710.68	0.6386
323.15 K, 5997 kPa	712.57	0.6529
323.15 K, 8005 kPa	714.3	0.6676
323.15 K, 10006 kPa	715.96	0.6824
323.15 K, 12995 kPa	718.36	0.7045
323.15 K, 15989 kPa	720.73	0.7274
323.15 K, 18994 kPa	723	0.7511
323.15 K, 21997 kPa	725.28	0.774
323.15 K, 25006 kPa	727.5	0.7981
323.15 K, 28004 kPa	729.62	0.822
323.15 K, 30005 kPa	731.03	0.8382
353.15 K, 5998 kPa	689.96	0.4714
353.15 K, 7997 kPa	691.97	0.4825
353.15 K, 22010 kPa	704.95	0.5612
353.16 K, 2000 kPa	685.65	0.448
353.16 K, 3999 kPa	687.9	0.4596
353.16 K, 9991 kPa	694.06	0.494
353.16 K, 13003 kPa	697.01	0.5106
353.16 K, 15994 kPa	699.86	0.5272
353.16 K, 19005 kPa	702.43	0.5442
353.16 K, 25000 kPa	707.44	0.5788
353.16 K, 27992 kPa	710.01	0.5967
353.16 K, 29995 kPa	711.67	0.6086

CCCCCCCCCCCC [dodecane]
Conditions	mass density [kg/m3]	viscosity [mPa·s]
293.21 K, 2007 kPa	750.58	1.522
293.21 K, 3977 kPa	752.18	1.56
293.21 K, 5979 kPa	753.71	1.599
293.21 K, 7982 kPa	755.06	1.639
293.21 K, 12987 kPa	758.27	1.74
293.21 K, 29985 kPa	768.5	2.106
293.22 K, 9987 kPa	756.38	1.679
293.22 K, 15986 kPa	760.07	1.801
293.22 K, 18994 kPa	761.82	1.865
293.22 K, 21995 kPa	763.63	1.929
293.22 K, 24987 kPa	765.5	1.994
293.22 K, 27987 kPa	767.37	2.061
313.1 K, 1990 kPa	736.16	1.089
313.1 K, 4017 kPa	737.72	1.116
313.1 K, 6016 kPa	739.14	1.143
313.1 K, 8014 kPa	740.64	1.171
313.1 K, 10011 kPa	742.11	1.199
313.1 K, 13007 kPa	744.26	1.241
313.1 K, 16011 kPa	746.36	1.283
313.1 K, 19017 kPa	748.61	1.326
313.1 K, 22017 kPa	750.69	1.37
313.1 K, 25019 kPa	752.63	1.414
313.1 K, 28017 kPa	754.52	1.458
313.1 K, 30020 kPa	755.75	1.489
333 K, 3976 kPa	723.61	0.8436
333.01 K, 2024 kPa	721.82	0.823
333.01 K, 5981 kPa	725.32	0.8643
333.01 K, 7987 kPa	726.99	0.885
333.01 K, 10019 kPa	728.35	0.9059
333.01 K, 13016 kPa	730.73	0.9374
333.01 K, 16014 kPa	733.04	0.9691
333.01 K, 19018 kPa	735.29	1.001
333.01 K, 22015 kPa	737.46	1.033
333.01 K, 25018 kPa	739.58	1.066
333.01 K, 28015 kPa	741.65	1.099
333.01 K, 30024 kPa	742.99	1.121
353.12 K, 2000 kPa	706.86	0.6433
353.12 K, 3991 kPa	708.83	0.6598
353.12 K, 5996 kPa	710.75	0.6763
353.12 K, 8009 kPa	712.81	0.6929
353.12 K, 10014 kPa	714.63	0.7095
353.12 K, 13006 kPa	717.28	0.7344
353.12 K, 16007 kPa	719.83	0.7594
353.12 K, 19003 kPa	722.16	0.7845
353.12 K, 22006 kPa	724.55	0.8098
353.12 K, 25008 kPa	726.87	0.8352
353.12 K, 28011 kPa	729.13	0.8607
353.12 K, 30007 kPa	730.59	0.8778

CCCCCCCCC [nonane]
Conditions	mass density [kg/m3]	viscosity [mPa·s]
293.21 K, 1993 kPa	719.36	0.7109
293.21 K, 3991 kPa	721.16	0.7266
293.21 K, 5993 kPa	722.88	0.7426
293.21 K, 7996 kPa	724.42	0.7587
293.21 K, 10001 kPa	725.92	0.775
293.21 K, 13001 kPa	728	0.8
293.21 K, 19004 kPa	732.11	0.8517
293.21 K, 22005 kPa	734.14	0.8782
293.21 K, 24997 kPa	736.13	0.9052
293.21 K, 27997 kPa	738.31	0.9329
293.21 K, 29995 kPa	739.58	0.9516
293.22 K, 16000 kPa	730.02	0.8254
313.1 K, 19007 kPa	718.18	0.6634
313.1 K, 22007 kPa	720.52	0.6827
313.1 K, 25009 kPa	722.7	0.7023
313.1 K, 28007 kPa	724.82	0.7222
313.1 K, 30010 kPa	726.21	0.7357
313.11 K, 2000 kPa	704.08	0.559
313.11 K, 4007 kPa	705.88	0.5709
313.11 K, 6006 kPa	707.62	0.5829
313.11 K, 8004 kPa	709.24	0.595
313.11 K, 10007 kPa	710.92	0.6072
313.11 K, 13003 kPa	713.28	0.6256
313.11 K, 16007 kPa	715.76	0.6444
333 K, 2014 kPa	688.53	0.4535
333 K, 3990 kPa	690.6	0.4631
333 K, 5995 kPa	692.58	0.4727
333.01 K, 8001 kPa	694.51	0.4824
333.01 K, 10007 kPa	696.11	0.4921
333.01 K, 13004 kPa	698.84	0.5067
333.01 K, 16002 kPa	701.48	0.5215
333.01 K, 19006 kPa	704.03	0.5364
333.01 K, 22003 kPa	706.5	0.5515
333.01 K, 25006 kPa	708.9	0.5667
333.01 K, 28003 kPa	711.23	0.5821
333.01 K, 30012 kPa	712.74	0.5925
353.12 K, 2004 kPa	672.27	0.3733
353.12 K, 3995 kPa	674.59	0.3814
353.12 K, 6000 kPa	676.83	0.3894
353.12 K, 8005 kPa	679.1	0.3975
353.12 K, 10010 kPa	681.31	0.4056
353.12 K, 13002 kPa	684.37	0.4178
353.12 K, 16003 kPa	687.3	0.43
353.12 K, 18999 kPa	689.99	0.4422
353.12 K, 22002 kPa	692.72	0.4546
353.12 K, 25004 kPa	695.35	0.467
353.12 K, 28007 kPa	697.9	0.4795
353.12 K, 30003 kPa	699.56	0.4879

Source: the NIST ThermoML archive (doi:10.1021/acs.jced.7b00650)
